Some test systems named below: 786-0 renal; PC-3 prostate; OVCAR-3 ovarian; A498 renal; MCF7 breast; DU-145 prostate; MALME-3M melanoma; BT-549 breast; MDA-N; DLD-1 colon; SNB-78 CNS; M19-MEL melanoma; DMS 114 small cell lung; KM20L2 colon.
What all share (experiment): inhibition of tumour cell growth, NCI panel, 48 h

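These data come from cells grown in 96-well plates and exposed to compound for 48 hours at five concentrations. GI50 is the concentration that inhibits growth by half. TGI marks complete inhibition of growth.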

As for `CC(O)=NC(Cc1ccc2ccccc2c1)C(O)=NC(Cc1ccc(Cl)cc1)C(O)=NC(Cc1c[nH]c2ccccc12)C(O)=NC(CO)C(O)=NC(Cc1ccc(O)cc1)C(O)=NC(CCCN=C(N)N)C(O)=NC(CC(C)C)C(O)=NC(CCCN=C(N)N)C(=O)N1CCCC1C(O)=NC(C)C(=N)O` (configuration not stated), the TGI with 786-0 renal, in the assay with PC-3 prostate, in the assay with OVCAR-3 ovarian, with A498 renal, in the assay on MCF7 breast and in the assay on DU-145 prostate was greater than 100 µM each time. Further, the TGI in the assay on MALME-3M melanoma, in the assay on BT-549 breast and in the assay with MDA-N was greater than 100 µM throughout.
For the molecule `CCOC(=O)[C@H]1C[C@]23CN(C(=O)OC(C)(C)C)CC[C@H]2CCC2(SCCCS2)[C@@H]3N1C`, the TGI with 786-0 renal was greater than 100 µM; with PC-3 prostate, 89.9 µM; with OVCAR-3 ovarian, greater than 100 µM; in the assay on A498 renal, greater than 100 µM; in the assay with MCF7 breast, greater than 100 µM; in the assay on DU-145 prostate it was greater than 100 µM. The values for the TGI in the assay with MALME-3M melanoma, with BT-549 breast and with MDA-N were 74.6 µM, greater than 100 µM and greater than 100 µM, respectively.
For the molecule `COc1c2ccoc2c(S(=O)(=O)Nc2ccc(Cl)cc2)c2oc(C)cc(=O)c12`, the TGI in the assay on DLD-1 colon, with OVCAR-3 ovarian, in the assay with SNB-78 CNS, with A498 renal, in the assay with M19-MEL melanoma and in the assay on MCF7 breast was greater than 100 µM throughout. Further, the TGI in the assay on DMS 114 small cell lung, with MALME-3M melanoma and in the assay on KM20L2 colon was greater than 100 µM each time.
Turning to `OC1(c2ccc3ccccc3c2)c2ccc3ccccc3c2C2=NCCN21` (configuration not stated), the TGI was 69.3 µM in the assay on 786-0 renal; greater than 100 µM with PC-3 prostate; greater than 100 µM with OVCAR-3 ovarian; greater than 100 µM with A498 renal; greater than 100 µM with MCF7 breast; greater than 100 µM in the assay on DU-145 prostate. Further, the TGI in the assay on MALME-3M melanoma, with BT-549 breast and in the assay on MDA-N was greater than 100 µM in each case.
As for `Cc1onc(-c2c(F)cccc2Cl)c1C(=O)N[C@@H]1C(=O)N2[C@@H]1SC(C)(C)[C@@H]2C(=O)O`, the TGI in the assay on 786-0 renal, in the assay on PC-3 prostate, in the assay on OVCAR-3 ovarian, in the assay on A498 renal, in the assay with MCF7 breast and in the assay on DU-145 prostate was greater than 100 µM throughout. For the same molecule, the TGI with MALME-3M melanoma, in the assay with BT-549 breast and in the assay with MDA-N was greater than 100 µM in each case.
On to `ClCC1(CCl)COC1`, for which the TGI in the assay with PC-3 prostate, in the assay on OVCAR-3 ovarian, in the assay on A498 renal, with MCF7 breast, with DU-145 prostate and in the assay on MDA-N was greater than 100 µM throughout.
For `O=C(/N=C/c1c(O)c2ccccc2oc1=O)NC1CCCCC1`, the TGI in the assay on SNB-78 CNS, with M19-MEL melanoma, with DMS 114 small cell lung and with KM20L2 colon was greater than 100 µM throughout.
Regarding `COc1cc(NCc2ccc3n2-c2ccccc2OC3)cc(OC)c1OC`, the TGI in the assay on 786-0 renal is greater than 100 µM; with PC-3 prostate, 87.1 µM; in the assay with OVCAR-3 ovarian, 75.5 µM; in the assay on A498 renal, 33.8 µM; in the assay on MCF7 breast, 40.6 µM; in the assay with DU-145 prostate, greater than 100 µM. Also, the TGI was determined as 50.9 µM with MALME-3M melanoma, 67.3 µM with BT-549 breast and 72.4 µM in the assay with MDA-N.
For the molecule `CCCC(=O)OCC(O)CO` (configuration not stated), the TGI in the assay with 786-0 renal, in the assay on DLD-1 colon, in the assay on SNB-78 CNS, in the assay on M19-MEL melanoma, with DMS 114 small cell lung and with MALME-3M melanoma was greater than 5000 µM each time.
`CCOc1ccc2c(c1)NC(=O)C(C1OC(c3ccccc3)=CC1=O)S2` (configuration not stated): the TGI is 80.5 µM in the assay on 786-0 renal; 51.4 µM with PC-3 prostate; 50.1 µM with OVCAR-3 ovarian; greater than 100 µM with A498 renal; 30.4 µM in the assay on MCF7 breast; greater than 100 µM in the assay on DU-145 prostate. Further, the TGI amounted to 44.5 µM in the assay with MALME-3M melanoma, 65.9 µM in the assay with BT-549 breast and 77.4 µM in the assay with MDA-N.
Turning to `CO[C@]12C[C@H](CNC(=O)c3cc(Br)c(Br)[nH]3)O[C@H]1NC(=O)N2`, the TGI with 786-0 renal, with PC-3 prostate, in the assay with OVCAR-3 ovarian, in the assay with A498 renal, in the assay on MCF7 breast and with DU-145 prostate was greater than 100 µM throughout. The TGI in the assay on MALME-3M melanoma and in the assay on BT-549 breast was greater than 100 µM each time.
Take `CC[N+](CC)(CC)/C(=N/S(=O)(=O)c1cc(C)c(Cl)cc1S)[N-]S(=O)(=O)c1ccc(Cl)cc1`: the TGI in the assay with 786-0 renal, with PC-3 prostate, with OVCAR-3 ovarian, in the assay on A498 renal, in the assay on MCF7 breast and in the assay on DU-145 prostate was greater than 100 µM throughout. The TGI in the assay on MDA-N was greater than 100 µM.
For `Cc1ccc(S(=O)(=O)NCCSS(=O)(=O)c2ccc(C)cc2)cc1`, the TGI was 94.8 µM in the assay on PC-3 prostate; 67.2 µM in the assay with A498 renal; 41 µM with MCF7 breast; greater than 100 µM with DU-145 prostate; 56.8 µM with MDA-N.
Turning to `CCCc1ccc(OCC(=O)N/N=C/c2c(-c3ccccc3)[nH]c3ccccc23)cc1`, the TGI in the assay with 786-0 renal is 35.7 µM; in the assay on PC-3 prostate, 29.4 µM; in the assay on OVCAR-3 ovarian, 95.2 µM; in the assay with A498 renal, 31.8 µM; in the assay with MCF7 breast it was 54.3 µM; in the assay with DU-145 prostate, greater than 100 µM. For the same molecule, the TGI was greater than 100 µM with MALME-3M melanoma and 34 µM in the assay on BT-549 breast.
In the case of `CS(=O)(=O)OCc1c(O)c2c(c(O)c1COS(C)(=O)=O)C(=O)C=CC2=O`, the TGI in the assay on DLD-1 colon, with OVCAR-3 ovarian, in the assay with SNB-78 CNS, in the assay with A498 renal, in the assay with DMS 114 small cell lung and in the assay on MALME-3M melanoma was greater than 100 µM each time. Besides, the TGI with KM20L2 colon was greater than 100 µM.
For `C=C1C(=O)OC2/C=C(\C)CC(O)/C=C(/CO)CC(OC(=O)/C(C)=C/C)C12` (configuration not stated), the TGI in the assay on DLD-1 colon was 139 µM; with OVCAR-3 ovarian it was 122 µM; in the assay with SNB-78 CNS, 319 µM; in the assay on A498 renal it was 58.4 µM; in the assay with M19-MEL melanoma, 92 µM; in the assay with MCF7 breast it was 68.2 µM. Moreover, the figures for the TGI in the assay on DMS 114 small cell lung, in the assay with MALME-3M melanoma and in the assay on KM20L2 colon were 30.5 µM, 66.6 µM and 246 µM, respectively.
As to `C=CCC1=CC2(OC)C(=O)C(OC)(OC)C1C1C(OC)(OC)C(=O)C(OC)=CC12CC=C` (configuration not stated), the TGI in the assay with 786-0 renal, with PC-3 prostate, in the assay on OVCAR-3 ovarian, in the assay with A498 renal, with MCF7 breast and in the assay on DU-145 prostate was greater than 100 µM each time. The TGI in the assay on MALME-3M melanoma, in the assay with BT-549 breast and in the assay on MDA-N was greater than 100 µM in each case.
Take `C[C@]12CC[C@H](O)CC1=CC[C@@H]1[C@@H]2CC[C@]2(C)C(=O)CC[C@@H]12`: the TGI with 786-0 renal, in the assay with PC-3 prostate, in the assay with OVCAR-3 ovarian, in the assay with MCF7 breast, with DU-145 prostate and in the assay on MALME-3M melanoma was greater than 100 µM throughout. In addition, the TGI in the assay with BT-549 breast and in the assay on MDA-N was greater than 100 µM each time.
Take `CC(C)Cc1cccc(C(C)C)c1NC(=O)CCC(=O)N/N=C1\C(=N/NC(=O)CCC(=O)Nc2c(C(C)C)cccc2C(C)C)C(c2ccc3c(c2)OCO3)Oc2ccccc21` (configuration not stated): the TGI in the assay with DLD-1 colon, in the assay with SNB-78 CNS, in the assay on A498 renal, in the assay with M19-MEL melanoma, with DMS 114 small cell lung and with KM20L2 colon was greater than 100 µM in each case.
For `COc1ccc(-n2cc(-c3ccc(OC)c(OC)c3)nc2SCc2ccccc2)cc1Cl`, the GI50 in the assay with PC-3 prostate is 13.8 µM; in the assay with OVCAR-3 ovarian it was 20.6 µM; in the assay with A498 renal, 22.3 µM; in the assay on MCF7 breast, 24 µM; with DU-145 prostate, 27.6 µM; in the assay with BT-549 breast, 14.9 µM. In addition, the TGI in the assay on PC-3 prostate is greater than 100 µM; with OVCAR-3 ovarian it was greater than 100 µM; in the assay on A498 renal, greater than 100 µM; with MCF7 breast, greater than 100 µM; in the assay on DU-145 prostate, greater than 100 µM; in the assay with BT-549 breast, 42.5 µM.
Take `FC(F)(F)C1=NC(=NNc2nnc(-c3ccccc3)c(-c3ccccc3)n2)N=C(C(F)(F)F)C1`: the TGI is greater than 100 µM in the assay with DLD-1 colon; greater than 100 µM in the assay on OVCAR-3 ovarian; greater than 100 µM with SNB-78 CNS; greater than 100 µM in the assay with A498 renal; greater than 68.4 µM in the assay with M19-MEL melanoma; greater than 100 µM in the assay with MCF7 breast. In addition, the TGI in the assay on DMS 114 small cell lung is 28.2 µM; in the assay with MALME-3M melanoma, greater than 100 µM; in the assay with KM20L2 colon, greater than 100 µM.
Take `C[C@H](O)C(=O)SC[C@H](NC(=O)CC[C@@H](N)C(=O)O)C(=O)NCC(=O)O`: the TGI in the assay with DLD-1 colon, with OVCAR-3 ovarian, in the assay with M19-MEL melanoma, with DMS 114 small cell lung, in the assay with MALME-3M melanoma and in the assay with KM20L2 colon was greater than 100 µM throughout.
For `Oc1ccc2ccccc2c1Cc1c(O)ccc2ccccc12`, the TGI was determined as 41.7 µM with 786-0 renal; 35.1 µM in the assay on PC-3 prostate; 28.4 µM with OVCAR-3 ovarian; 39.4 µM in the assay with A498 renal; 53.9 µM in the assay with MCF7 breast; 38.1 µM with DU-145 prostate. For the same molecule, the TGI was 28.9 µM with MALME-3M melanoma, 33.6 µM in the assay on BT-549 breast and 28.3 µM in the assay on MDA-N.
Take `C[n+]1c(-c2ccc(/C=N\NC(=O)c3ccc(C(=O)N/N=C/c4ccc(-c5cn6ccsc6[n+]5C)cc4)cc3)cc2)cn2ccsc21`: the TGI turned out to be 36.8 µM in the assay on 786-0 renal; 41.1 µM in the assay with PC-3 prostate; 28.5 µM in the assay on OVCAR-3 ovarian; 33 µM with A498 renal; 47.9 µM in the assay on MCF7 breast; 35 µM in the assay with DU-145 prostate. Besides, the TGI in the assay on MALME-3M melanoma came out at 47.7 µM; in the assay on BT-549 breast it was 42.7 µM; with MDA-N, 78.3 µM.
As to `O=c1cc(-c2nc3ccccc3[nH]2)[nH]c2nc(-c3nc4ccccc4[nH]3)cc(-c3ccc(Cl)cc3)c12`, the TGI in the assay on PC-3 prostate was greater than 100 µM; in the assay on OVCAR-3 ovarian, 63.4 µM; with MCF7 breast, 36.3 µM; with DU-145 prostate, greater than 100 µM; with MALME-3M melanoma, 71.2 µM; with BT-549 breast, greater than 100 µM. The molecule further displayed a TGI in the assay with MDA-N of 59.6 µM.
Regarding `CCOc1cc(NC(C)=O)ccc1C(=O)NN1C(=O)CSC1c1ccc(O)c(OC)c1` (configuration not stated), the TGI in the assay on 786-0 renal, in the assay with PC-3 prostate, with OVCAR-3 ovarian, with A498 renal, in the assay with MCF7 breast and in the assay with DU-145 prostate was greater than 100 µM in each case. Also, the TGI in the assay on MALME-3M melanoma is greater than 100 µM; in the assay on BT-549 breast, 98.6 µM; with MDA-N, greater than 100 µM.

(Values after PubChem BioAssay (NCI).)
